According to ChEMBL document CHEMBL1201862, “PubChem BioAssay data set” (2004):
The source made the active and inactive calls.

Key:
[1] = molecular target: T1, Short transient receptor potential channel 4 (Mus musculus, UniProt Q9QUQ5); test: mouse TRPC4 channel activators, dose response, cell-based, HEK293 TRPC4/mu-opioid, Fluo-4 calcium (AID 434937); type: functional
T1 sequence (Q9QUQ5 whole entry): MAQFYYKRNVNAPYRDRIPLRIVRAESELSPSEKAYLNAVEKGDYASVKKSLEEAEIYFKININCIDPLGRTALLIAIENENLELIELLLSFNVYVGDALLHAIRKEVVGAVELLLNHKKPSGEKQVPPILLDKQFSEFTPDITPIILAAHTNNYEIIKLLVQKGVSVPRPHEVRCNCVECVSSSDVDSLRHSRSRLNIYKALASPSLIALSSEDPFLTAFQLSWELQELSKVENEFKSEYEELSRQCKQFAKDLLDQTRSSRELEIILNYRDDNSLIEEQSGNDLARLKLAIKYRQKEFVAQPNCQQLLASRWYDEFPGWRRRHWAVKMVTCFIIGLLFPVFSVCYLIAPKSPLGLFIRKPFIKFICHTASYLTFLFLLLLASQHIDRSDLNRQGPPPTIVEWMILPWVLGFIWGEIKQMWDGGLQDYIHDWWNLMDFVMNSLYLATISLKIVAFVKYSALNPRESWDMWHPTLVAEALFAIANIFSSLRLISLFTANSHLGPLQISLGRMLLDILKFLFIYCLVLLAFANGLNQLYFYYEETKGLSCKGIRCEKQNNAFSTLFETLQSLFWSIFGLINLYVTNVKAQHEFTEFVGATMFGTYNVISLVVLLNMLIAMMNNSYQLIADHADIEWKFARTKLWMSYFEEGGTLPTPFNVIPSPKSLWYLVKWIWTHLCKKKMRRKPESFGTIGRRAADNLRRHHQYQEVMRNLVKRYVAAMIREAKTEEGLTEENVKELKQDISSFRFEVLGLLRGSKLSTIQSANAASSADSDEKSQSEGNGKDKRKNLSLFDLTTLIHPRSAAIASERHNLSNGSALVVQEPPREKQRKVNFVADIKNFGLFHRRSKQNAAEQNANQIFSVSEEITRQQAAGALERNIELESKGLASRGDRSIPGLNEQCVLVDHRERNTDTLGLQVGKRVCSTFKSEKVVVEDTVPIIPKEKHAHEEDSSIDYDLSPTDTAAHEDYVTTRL

[2] = molecular target: Delta-type opioid receptor (Homo sapiens, UniProt P41143); test: Counterscreen for agonists of heterodimerization of the mu 1 (OPRM1) and delta 1 (OPRD1) opioid receptors: Luminescence-based cell-based high throughput dose response assay to identify agonists of OPRD1 homodimerization. [Related pubchem assays (depositor defined):AID504326, AID504355, AID504692, AID504904, AID504905]; type: functional
Delta-type opioid receptor, sequence (P41143 whole entry): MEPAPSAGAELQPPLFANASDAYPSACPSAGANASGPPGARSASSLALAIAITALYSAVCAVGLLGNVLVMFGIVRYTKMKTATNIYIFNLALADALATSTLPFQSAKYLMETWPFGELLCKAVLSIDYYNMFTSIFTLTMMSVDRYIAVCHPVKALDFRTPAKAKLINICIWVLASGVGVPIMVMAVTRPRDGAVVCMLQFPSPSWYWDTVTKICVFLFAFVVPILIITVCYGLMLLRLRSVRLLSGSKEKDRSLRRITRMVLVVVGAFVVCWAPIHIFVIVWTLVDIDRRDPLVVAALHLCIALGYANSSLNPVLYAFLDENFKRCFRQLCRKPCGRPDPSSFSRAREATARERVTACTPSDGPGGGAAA

Mu-type opioid receptor = Mu-type opioid receptor (Homo sapiens, UniProt P35372); test: Counterscreen for agonists of heterodimerization of the mu 1 (OPRM1) and delta 1 (OPRD1) opioid receptors: Luminescence-based cell-based high throughput dose response assay to identify agonists of OPRM1 homodimerization.; type: functional;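 note: U2OS cells expressing OPRM1 and beta-arrestin as split beta-galactosidase partners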
Mu-type opioid receptor, sequence (P35372 whole entry): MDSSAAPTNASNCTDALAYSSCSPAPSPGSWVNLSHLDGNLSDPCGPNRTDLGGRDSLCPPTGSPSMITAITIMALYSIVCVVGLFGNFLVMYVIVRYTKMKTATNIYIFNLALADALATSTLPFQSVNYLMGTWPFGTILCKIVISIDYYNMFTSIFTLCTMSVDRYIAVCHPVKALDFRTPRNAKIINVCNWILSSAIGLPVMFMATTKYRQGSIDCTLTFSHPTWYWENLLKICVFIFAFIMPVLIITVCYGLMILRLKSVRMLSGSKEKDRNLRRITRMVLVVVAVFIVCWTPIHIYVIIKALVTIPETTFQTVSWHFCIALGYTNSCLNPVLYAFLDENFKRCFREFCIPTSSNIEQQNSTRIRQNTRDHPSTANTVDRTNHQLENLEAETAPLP

[3] = molecular target: 5-hydroxytryptamine receptor 5A (Homo sapiens, UniProt P47898); test: Counterscreen for agonists of OPRM1-OPRD1 heterodimerization: luminescence-based cell-based high throughput dose response assay to identify agonists of 5-hydroxytryptamine (serotonin) 5A receptor (HTR5A). [Related pubchem assays (depositor defined):AID504326, AID504355, AID504692, AID504904, AID504905]; type: functional
5-hydroxytryptamine receptor 5A, sequence (P47898 whole entry): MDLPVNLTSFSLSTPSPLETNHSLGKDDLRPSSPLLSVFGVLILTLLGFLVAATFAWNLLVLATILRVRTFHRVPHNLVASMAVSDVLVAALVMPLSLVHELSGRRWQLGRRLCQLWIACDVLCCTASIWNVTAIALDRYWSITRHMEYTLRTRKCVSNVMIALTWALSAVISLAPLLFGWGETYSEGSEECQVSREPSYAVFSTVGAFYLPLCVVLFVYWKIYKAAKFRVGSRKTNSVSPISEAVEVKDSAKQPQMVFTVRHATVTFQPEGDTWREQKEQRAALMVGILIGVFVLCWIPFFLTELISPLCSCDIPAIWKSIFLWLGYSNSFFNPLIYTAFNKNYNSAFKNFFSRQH

HEK293 = test: cells; type: functional, cell-based; details: Homo sapiens
[4] = molecular target: T2, Nuclear receptor subfamily 0 group B member 1 (Homo sapiens, UniProt P51843); test: Luminescence-based cell-based high throughput dose response assay for inhibitors of the orphan nuclear receptor subfamily 0, group B, member 1 (DAX1; NR0B1). [Related pubchem assays (depositor defined):AID504766, AID504790]; type: functional
T2 sequence (P51843 whole entry): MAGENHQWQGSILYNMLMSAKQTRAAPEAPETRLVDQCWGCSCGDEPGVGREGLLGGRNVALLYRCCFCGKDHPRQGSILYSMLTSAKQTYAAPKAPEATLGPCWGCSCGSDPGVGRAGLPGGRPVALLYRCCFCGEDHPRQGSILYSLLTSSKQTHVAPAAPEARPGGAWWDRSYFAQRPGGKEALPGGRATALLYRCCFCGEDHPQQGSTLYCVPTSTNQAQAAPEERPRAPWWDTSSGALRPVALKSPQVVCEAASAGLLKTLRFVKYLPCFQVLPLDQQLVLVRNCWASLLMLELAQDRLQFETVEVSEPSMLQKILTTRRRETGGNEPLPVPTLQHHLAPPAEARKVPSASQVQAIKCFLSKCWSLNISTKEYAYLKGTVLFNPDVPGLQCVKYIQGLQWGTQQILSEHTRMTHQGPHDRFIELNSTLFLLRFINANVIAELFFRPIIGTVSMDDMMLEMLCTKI

Vero [5] = test: cells; type: functional, cell-based; details: Chlorocebus sabaeus
Vero [6] = test: cells; type: functional; details: Chlorocebus sabaeus
Escherichia coli = test: microbe, parasite or virus in culture
CAAX prenyl protease 2 [7] = molecular target: T3, CAAX prenyl protease 2 (Saccharomyces cerevisiae S288c, UniProt Q03530); type: biochemical
T3 sequence (Q03530 whole entry): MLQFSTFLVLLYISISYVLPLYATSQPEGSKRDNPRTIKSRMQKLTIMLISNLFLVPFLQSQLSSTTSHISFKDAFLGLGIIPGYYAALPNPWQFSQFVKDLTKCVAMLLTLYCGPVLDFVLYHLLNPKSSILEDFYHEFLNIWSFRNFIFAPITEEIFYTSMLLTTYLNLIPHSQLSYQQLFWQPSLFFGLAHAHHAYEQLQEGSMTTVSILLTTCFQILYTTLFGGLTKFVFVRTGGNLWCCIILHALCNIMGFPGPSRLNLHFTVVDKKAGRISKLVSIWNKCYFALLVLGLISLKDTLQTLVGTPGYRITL

[8] = molecular target: FAD-linked sulfhydryl oxidase ALR (Homo sapiens, UniProt P55789); test: inhibitors of human ALR sulfhydryl oxidase, dose response, biochemical, H2O2 detection, luminescence, cherry-pick (AID 493248)
FAD-linked sulfhydryl oxidase ALR, sequence (P55789 whole entry): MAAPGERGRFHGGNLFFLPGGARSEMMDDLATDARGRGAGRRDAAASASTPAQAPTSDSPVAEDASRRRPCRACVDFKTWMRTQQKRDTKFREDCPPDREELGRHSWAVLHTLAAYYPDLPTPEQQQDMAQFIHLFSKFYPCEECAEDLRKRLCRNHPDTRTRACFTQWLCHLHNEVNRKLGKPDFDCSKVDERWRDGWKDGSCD

CAAX prenyl protease 1 = CAAX prenyl protease 1 (Saccharomyces cerevisiae S288c, UniProt P47154); test: Ste24 protease inhibitors, dose response, biochemical, S. cerevisiae, plate reader, cherry-pick (AID 488815)
CAAX prenyl protease 1, sequence (P47154 whole entry): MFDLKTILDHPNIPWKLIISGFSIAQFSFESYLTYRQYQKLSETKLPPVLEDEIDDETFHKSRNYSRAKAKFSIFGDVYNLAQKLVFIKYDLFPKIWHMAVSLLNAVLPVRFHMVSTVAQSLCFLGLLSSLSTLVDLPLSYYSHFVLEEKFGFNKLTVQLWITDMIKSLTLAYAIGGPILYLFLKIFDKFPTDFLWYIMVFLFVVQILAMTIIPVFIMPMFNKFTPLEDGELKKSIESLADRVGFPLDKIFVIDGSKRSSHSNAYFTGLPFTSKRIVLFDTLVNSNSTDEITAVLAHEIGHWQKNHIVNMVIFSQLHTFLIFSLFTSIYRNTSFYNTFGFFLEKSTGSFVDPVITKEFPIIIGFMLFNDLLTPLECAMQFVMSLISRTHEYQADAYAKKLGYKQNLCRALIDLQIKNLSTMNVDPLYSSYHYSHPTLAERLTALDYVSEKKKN

CAAX prenyl protease 2 [9] = molecular target: CAAX prenyl protease 2 (Homo sapiens, UniProt Q9Y256); test: human Rce1 protease inhibitors, dose response, biochemical, yeast membranes, quenched-peptide fluorescence, cherry-pick (AID 588849)
CAAX prenyl protease 2 (Homo sapiens, UniProt Q9Y256), sequence (Q9Y256 whole entry): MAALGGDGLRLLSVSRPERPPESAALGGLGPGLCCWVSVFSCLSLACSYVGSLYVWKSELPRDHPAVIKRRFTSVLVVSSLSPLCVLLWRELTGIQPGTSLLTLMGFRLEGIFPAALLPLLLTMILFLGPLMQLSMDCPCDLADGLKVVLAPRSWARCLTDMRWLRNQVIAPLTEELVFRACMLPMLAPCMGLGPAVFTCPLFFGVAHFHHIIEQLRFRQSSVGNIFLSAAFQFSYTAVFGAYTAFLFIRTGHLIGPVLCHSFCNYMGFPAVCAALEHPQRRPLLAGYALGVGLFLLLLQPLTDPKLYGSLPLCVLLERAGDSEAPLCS

[10] = inhibitors of firefly luciferase expression or activity, dose response, H4 neuroglioma cells, luminescence (AID 1990); type: functional, cell-based
[11] = Luminescence Cell-Based Dose Response HTS to Identify Inhibitors of 5'UTR Stem-Loop Driven Prion Protein mRNA Translation in H4 Neuroglioblastoma Cells. [Related pubchem assays: 1827 (Project Summary), 1813 (Primary HTS)]; type: functional
[12] = inhibitors of SNCA 5'UTR-driven reporter translation, confirmation, H4 neuroglioma cells, luminescence (AID 1988); type: functional, cell-based
[13] = Luminescence Cell-Based Dose Retest to Confirm Inhibitors of Cancer Stem Cells. [Related pubchem assays (depositor defined):AID2717, AID2721]; type: functional; details: Homo sapiens

SMILES: COCC1CCN(Cc2cn(-c3ccccc3F)nc2-c2cc(C)sc2C)CC1
- EC50 [1]: 1.88 µM (active)
- EC50 [2]: > 92.5 µM (inactive)
- EC50 (Mu-type opioid receptor): > 92.5 µM (inactive)
- EC50 [3]: > 92.5 µM (inactive)

SMILES: Clc1ccccc1Nc1nc(-c2cccnc2)cs1
- IC50 (HEK293): > 67.5 µM (inactive)
- IC50 [4]: > 67.5 µM (inactive)

SMILES: Cc1ccc(-c2nnn3c2nc(Cl)c2ccccc23)cc1
- IC50 (Vero [5]): > 25 µM (active)
- CC50 (Vero [6]): 18.4 µM (active)

SMILES: O=C1CN2C(=Nc3ccc(Br)cc3C2c2ccccc2)CCN1 (centres undefined)
- AC50 (Escherichia coli): 81.5 µM (active)

SMILES: COc1ccc(/C=N/NC(=O)c2[nH]c3ccc(C)cc3c2-c2ccccc2)c(C(=O)O)c1OC
- AC50 (CAAX prenyl protease 2 [7]): 5.21 µM (active)
- AC50 [8]: 3.71 µM (active)
- AC50 (CAAX prenyl protease 1): 1.76 µM (active)
- AC50 (CAAX prenyl protease 2 [9]): 3.14 µM (active)

SMILES: Cc1cccc(N/N=C(\C(N)=O)C2=NC(C)(C)Cc3ccccc32)c1
- EC50 [10]: 3.43 µM (active)
- EC50 [11]: 13.1 µM (active)
- EC50 [12]: 20.2 µM (active)
- AC50 [13]: 9.41 µM (active)
- IC50 (Vero [5]): > 25 µM (active)
- CC50 (Vero [6]): > 25 µM (active)
